Measurements as given in article PMC6934184, “Selective DNA-PKcs inhibition extends the therapeutic index of localized radiotherapy and chemotherapy” (The Journal of Clinical Investigation, 2019).

Biological target: T1, FRAP1 (mTOR) (Homo sapiens, UniProt P42345)
T1 construct: purchased Thermo Fisher Scientific (Life Technologies) SelectScreen
Assay: SelectScreen Z'LYTE
Type: biochemical
Outline: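 Percent values come from Thermo SelectScreen profiling of NU5455, combining activity and binding assays. CSF1R was run in Z'LYTE format at Km app ATP, and CAMK1 in Adapta format with ATP listed at 10.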

Compound: CN(C(=O)CN1CCOCC1)c1ccc2sc3c(-c4cccc5c(=O)cc(N6CC7CCC(C6)O7)oc45)cccc3c2c1 [NU5455]
- inhibition at 1 µM: 5.7%
